# Patent publication US6479435B1, “Diaryl ethers and processes for their preparation and herbicidal and desiccant compositions containing them” (ISK Americas Incorporated, priority 1997, dated 2002)
# Assays:
# Format in all cases: in vivo
# [1] = test system: Johnsongrass (Sorghum halepense, SORHA); assay: Pre-emerge greenhouse herbicide test, phytotoxicity rating; conditions: 14 days after application, rating scale 0-100
# Method in brief: (§1)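 Visual 0–100 injury rating (100 = all plants dead) taken 14 days after treatment. Rates of 125–1000 g ai/ha in acetone, 187 l/ha, were sprayed onto soil one day post-sowing; pots were surface-watered to incorporate, then bottom-watered.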
# [2] = test system: barnyardgrass (Echinochloa crusgalli, ECHCG); assay: as above; conditions: 14 days after application, rating scale 0-100
# Method in brief: as §1
# [3] = test system: common ragweed (Ambrosia artemisiifolia L., AMBEL); assay: as above; conditions: 14 days after application, rating scale 0-100
# Method in brief: as §1
# [4] = test system: green foxtail (Setaria viridis, SETVI); assay: as above; conditions: 14 days after application, rating scale 0-100
# Method in brief: as §1
# [5] = test system: ivyleaf morningglory (Ipomoea hederacea, IPOHE); assay: as above; conditions: 14 days after application, rating scale 0-100
# Method in brief: as §1
# [6] = test system: lambsquarters (Chenopodium album, CHEAL); assay: as above; conditions: 14 days after application, rating scale 0-100
# Method in brief: as §1
# [7] = test system: large crabgrass (Digitaria sanguinalis, DIGSA); assay: as above; conditions: 14 days after application, rating scale 0-100
# Method in brief: as §1
# [8] = test system: redroot pigweed (Amaranthus retroflexus, AMARE); assay: as above; conditions: 14 days after application, rating scale 0-100
# Method in brief: as §1
# [9] = test system: sicklepod (Cassia obtusifolia, CASOB); assay: as above; conditions: 14 days after application, rating scale 0-100
# Method in brief: as §1
# [10] = test system: velvetleaf (Abutilon theophrasti, ABUTH); assay: as above; conditions: 14 days after application, rating scale 0-100
# Method in brief: as §1
# [11] = test system: field corn (Zea mays L., var. Dekalb 535, CORN); assay: Pre-emerge greenhouse test, crop damage rating; conditions: 14 days after application, rating scale 0-100
# Method in brief: as §1
# [12] = test system: upland rice (Oryza sp., var.Tebonnet, RICE); assay: Pre-emerge greenhouse test, crop damage rating; conditions: 14 days after application, rating scale 0-100
# Method in brief: as §1
# [13] = test system: soybean (Glycine max L., var. Pella 86, SOY); assay: Pre-emerge greenhouse test, crop damage rating; set-up: key to SOY crop damage rating: 0 = no damage, 100 = complete death of all plants; conditions: 14 days after application, rating scale 0-100
# Method in brief: as §1
# [14] = test system: common ragweed (Ambrosia artemisiifolia L., AMBEL); assay: Post-emerge greenhouse herbicide test, phytotoxicity rating; conditions: 14 days after application
# Method in brief: (§2)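 Scores use a 0 (no damage) to 100 (complete kill) scale, taken 14 days after a foliar spray. Acetone solutions with 0.25% v/v non-ionic surfactant were applied by track sprayer at 187 l/ha and 63-1000 g ai/ha to bottom-watered 2-3 leaf plants.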
# [15] = test system: Johnsongrass (Sorghum halepense, SORHA); assay: as above; conditions: 14 days after application
# Method in brief: as §2
# [16] = test system: barnyardgrass (Echinochloa crusgalli, ECHCG); assay: as above; conditions: 14 days after application
# Method in brief: as §2
# [17] = test system: green foxtail (Setaria viridis, SETVI); assay: as above; conditions: 14 days after application
# Method in brief: as §2
# [18] = test system: ivyleaf morningglory (Ipomoea hederacea, IPOHE); assay: as above; conditions: 14 days after application
# Method in brief: as §2
# [19] = test system: lambsquarters (Chenopodium album, CHEAL); assay: as above; conditions: 14 days after application
# Method in brief: as §2
# [20] = test system: large crabgrass (Digitaria sanguinalis, DIGSA); assay: as above; conditions: 14 days after application
# Method in brief: as §2
# [21] = test system: redroot pigweed (Amaranthus retroflexus, AMARE); assay: as above; conditions: 14 days after application
# Method in brief: as §2
# [22] = test system: sicklepod (Cassia obtusifolia, CASOB); assay: as above; conditions: 14 days after application
# Method in brief: as §2
# [23] = test system: velvetleaf (Abutilon theophrasti, ABUTH); assay: as above; conditions: 14 days after application
# Method in brief: as §2
# [24] = test system: field corn (Zea mays L., var. Dekalb 535, CORN); assay: Post-emerge greenhouse test, crop damage rating; conditions: 14 days after application
# Method in brief: as §2
# [25] = test system: upland rice (Oryza sp., var.Tebonnet, RICE); assay: Post-emerge greenhouse test, crop damage rating; conditions: 14 days after application
# Method in brief: as §2
# [26] = test system: soybean (Glycine max L., var. Pella 86, SOY); assay: Post-emerge greenhouse test, crop damage rating; set-up: key to crop damage rating SOY: 0-100 scale: 0 = no damage, 100 = complete death of all plants; conditions: 14 days after application
# Method in brief: as §2
structure (smiles),measurement,setting,value
CC(=O)Nc1ccc(Oc2cc(-n3c(=O)n4n(c3=S)CCCC4)c(F)cc2Cl)c(C(F)(F)F)c1 [Compound 8-16],phytotoxicity rating SORHA,[1]; 125 g ai/ha,0
same,SORHA phytotoxicity rating,[1]; Rate 500 g al/ha,10
same,phytotoxicity rating ECHCG,[2]; 125 g ai/ha,0
same,ECHCG phytotoxicity rating,[2]; Rate 500 g al/ha,0
same,phytotoxicity rating AMBEL,[3]; 125 g ai/ha,40
same,AMBEL phytotoxicity rating,[3]; Rate 500 g al/ha,100
same,phytotoxicity rating SETVI,[4]; 125 g ai/ha,0
same,SETVI phytotoxicity rating,[4]; Rate 500 g al/ha,70
same,phytotoxicity rating IPOHE,[5]; 125 g ai/ha,0
same,IPOHE phytotoxicity rating,[5]; Rate 500 g al/ha,0
same,phytotoxicity rating CHEAL,[6]; 125 g ai/ha,100
same,CHEAL phytotoxicity rating,[6]; Rate 500 g al/ha,100
same,phytotoxicity rating DIGSA,[7]; 125 g ai/ha,0
same,DIGSA phytotoxicity rating,[7]; Rate 500 g al/ha,30
same,phytotoxicity rating AMARE,[8]; 125 g ai/ha,80
same,AMARE phytotoxicity rating,[8]; Rate 500 g al/ha,90
same,phytotoxicity rating CASOB,[9]; 125 g ai/ha,0
same,CASOB phytotoxicity rating,[9]; Rate 500 g al/ha,0
same,phytotoxicity rating ABUTH,[10]; 125 g ai/ha,90
same,ABUTH phytotoxicity rating,[10]; Rate 500 g al/ha,100
same,crop damage rating CORN,[11]; 125 g ai/ha,0
same,CORN crop damage rating,[11]; Rate 500 g al/ha,0
same,crop damage rating RICE,[12]; 125 g ai/ha,0
same,RICE crop damage rating,[12]; Rate 500 g al/ha,0
same,crop damage rating SOY,[13]; 125 g ai/ha,0
same,SOY crop damage rating,[13]; Rate 500 g al/ha,10
same,AMBEL phytotoxicity rating (0-100),[14]; 63 g al/ha,40
same,phytotoxicity rating AMBEL,"[14]; rate 500 g ai/ha, scale 0-100",40
same,SORHA phytotoxicity rating (0-100),[15]; 63 g al/ha,0
same,phytotoxicity rating SORHA,"[15]; rate 500 g ai/ha, scale 0-100",10
same,ECHCG phytotoxicity rating (0-100),[16]; 63 g al/ha,0
same,phytotoxicity rating ECHCG,"[16]; rate 500 g ai/ha, scale 0-100",0
same,SETVI phytotoxicity rating (0-100),[17]; 63 g al/ha,10
same,phytotoxicity rating SETVI,"[17]; rate 500 g ai/ha, scale 0-100",30
same,IPOHE phytotoxicity rating (0-100),[18]; 63 g al/ha,90
same,phytotoxicity rating IPOHE,"[18]; rate 500 g ai/ha, scale 0-100",75
same,CHEAL phytotoxicity rating (0-100),[19]; 63 g al/ha,85
same,phytotoxicity rating CHEAL,"[19]; rate 500 g ai/ha, scale 0-100",95
same,DIGSA phytotoxicity rating (0-100),[20]; 63 g al/ha,0
same,phytotoxicity rating DIGSA,"[20]; rate 500 g ai/ha, scale 0-100",0
same,AMARE phytotoxicity rating (0-100),[21]; 63 g al/ha,90
same,phytotoxicity rating AMARE,"[21]; rate 500 g ai/ha, scale 0-100",100
same,CASOB phytotoxicity rating (0-100),[22]; 63 g al/ha,0
same,phytotoxicity rating CASOB,"[22]; rate 500 g ai/ha, scale 0-100",70
same,ABUTH phytotoxicity rating (0-100),[23]; 63 g al/ha,80
same,phytotoxicity rating ABUTH,"[23]; rate 500 g ai/ha, scale 0-100",100
same,CORN crop damage rating (0-100),[24]; 63 g al/ha,0
same,crop damage rating CORN,"[24]; rate 500 g ai/ha, scale 0-100",5
same,RICE crop damage rating (0-100),[25]; 63 g al/ha,0
same,crop damage rating RICE,"[25]; rate 500 g ai/ha, scale 0-100",0
same,SOY crop damage rating (0-100),[26]; 63 g al/ha,10
same,crop damage rating SOY,"[26]; rate 500 g ai/ha, scale 0-100",20
